Measurements taken from patent US20260035387A1 (BIOGEN MA INC., priority 2022, published 2026).

Test system: mutant Huntington (HTT) protein
Test: HTT Mutant HTRF iPSC assay (mHTT protein lowering)
Type: cell-based
Settings: human iPSC derived from a HTT patient with a poly-Q49 mutation

Compound	IC50 [nM]
Cc1cn2cc(NC(=O)c3cc4ccc(N5C[C@H]6CN(C)C[C@H]6C5)nc4s3)ccc2n1 [Compound 21, 6-((3aR,6aS)-5-methylhexahydropyrrolo[3,4-c]pyrrol-2(1H)-yl)-N-(2-methylimidazo[1,2-a]pyridin-6-yl)thieno[2,3-b]pyridine-2-carboxamide]	100 to 1000
Cc1cn2cc(NC(=O)c3cc4ccc(Nc5ccc(N6CC(C)(C)C6)cc5)nc4s3)ccc2n1 [Compound 44, 6-((4-(3,3-dimethylazetidin-1-yl)phenyl)amino)-N-(2-methylimidazo[1,2-a]pyridin-6-yl)thieno[2,3-b]pyridine-2-carboxamide]	1000 to 9000
COc1cc2nn(C)cc2cc1NC(=O)c1cc2ccc(N3CC[C@@H](N(C)C)C3)nc2s1 (single isomer, unassigned) [Compound 241]	< 100
COc1cc2nn(C)cc2cc1NC(=O)c1cc2ccc(N[C@H]3CC(C)(C)NC(C)(C)[C@@H]3F)nc2s1 (racemic) [Compound 261, 6-(((3R,4S)-3-fluoro-2,2,6,6-tetramethylpiperidin-4-yl)amino)-N-(6-methoxy-2-methyl-2H-indazol-5-yl)thieno[2,3-b]pyridine-2-carboxamide]	< 100
COc1cn2nc(C)cc2cc1NC(=O)c1cc2ccc(N3CCC4(CCCN4C)C3)nc2s1 (single isomer, unassigned) [Compound 225]	< 100
Cc1cn2cc(NC(=O)c3cc4ccc(OC5CCC(N(C)C)C5)nc4s3)cc(F)c2n1 (stereo not shown) [Compound 155, 6-((3-(dimethylamino)cyclopentyl)oxy)-N-(8-fluoro-2-methylimidazo[1,2-a]pyridin-6-yl)thieno[2,3-b]pyridine-2-carboxamide]	< 100
Cc1cn2cc(NC(=O)c3cc4ccc(N5CCC6OCCN(C)C6C5)nc4s3)ccc2n1 (stereo not shown) [Compound 15, 6-(4-methylhexahydro-2H-pyrido[4,3-b][1,4]oxazin-6(5H)-yl)-N-(2-methylimidazo[1,2-a]pyridin-6-yl)thieno[2,3-b]pyridine-2-carboxamide]	100 to 1000
COc1cn2nc(C)cc2cc1NC(=O)c1cc2nc(N3CCC4(CCCN4C)C3)ccc2o1 (single isomer, unassigned) [Compound 175]	< 100
COc1cc2nn(C)cc2cc1NC(=O)c1nc2ccc(N3CCC4(CCCN4C)C3)nc2s1 (stereo not shown) [Compound 87, N-(6-methoxy-2-methyl-2H-indazol-5-yl)-5-(1-methyl-1,7-diazaspiro[4.4]nonan-7-yl)thiazolo[5,4-b]pyridine-2-carboxamide]	< 100
Cc1cn2cc(NC(=O)c3cc4ccc(NC5CN(C)CC5F)nc4s3)nc(C)c2n1 (stereo not shown) [Compound 214, N-(2,8-dimethylimidazo[1,2-a]pyrazin-6-yl)-6-((4-fluoro-1-methylpyrrolidin-3-yl)amino)thieno[2,3-b]pyridine-2-carboxamide]	< 100
Cc1cn2cc(NC(=O)c3cc4nc(N5CCNCC5)ccc4o3)cc(F)c2n1 [Compound 169, N-(8-fluoro-2-methylimidazo[1,2-a]pyridin-6-yl)-5-(piperazin-1-yl)furo[3,2-b]pyridine-2-carboxamide]	< 100
Cc1cn2cc(NC(=O)c3cc4ccc(N5CC[C@@H](N(C)C)C5)nc4s3)cc(F)c2n1 [Compound 55, 6-[(3R)-3-(dimethylamino)pyrrolidin-1-yl]-N-(8-fluoro-2-methyl-imidazo[1,2-a]pyridin-6-yl)thieno[2,3-b]pyridine-2-carboxamide]	< 100
Cc1cn2cc(NC(=O)c3cc4ccc(NC5CC6CCCN6C5)nc4s3)ccc2n1 (stereo not shown) [Compound 12, 6-((hexahydro-1H-pyrrolizin-2-yl)amino)-N-(2-methylimidazo[1,2-a]pyridin-6-yl)thieno[2,3-b]pyridine-2-carboxamide]	100 to 1000
COc1cc2nn(C)cc2cc1NC(=O)c1nc2ccc(N3C[C@@H]4CN(C)C[C@@H]43)nc2s1 [Compound 90, N-(6-methoxy-2-methyl-2H-indazol-5-yl)-5-((1S,5R)-3-methyl-3,6-diazabicyclo[3.2.0]heptan-6-yl)thiazolo[5,4-b]pyridine-2-carboxamide]	< 100
Cc1cn2cc(NC(=O)c3nc4ccc(C5CCCN(C)C5)nc4s3)cc(F)c2n1 (stereo not shown) [Compound 134, N-(8-fluoro-2-methylimidazo[1,2-a]pyridin-6-yl)-5-(1-methylpiperidin-3-yl)thiazolo[5,4-b]pyridine-2-carboxamide]	< 100
Cc1cn2cc(NC(=O)c3cc4ccc(N5C[C@H]6CCN(C)[C@H]6C5)nc4s3)cc(F)c2n1 [Compound 70, N-(8-fluoro-2-methylimidazo[1,2-a]pyridin-6-yl)-6-((3aR,6aR)-1-methylhexahydropyrrolo[3,4-b]pyrrol-5(1H)-yl)thieno[2,3-b]pyridine-2-carboxamide]	< 100
Cc1cn2cc(NC(=O)c3cc4ccc(N5CCC(N(C)C)CC5)nc4s3)ccc2n1 [Compound 11, 6-(4-(dimethylamino)piperidin-1-yl)-N-(2-methylimidazo[1,2-a]pyridin-6-yl)thieno[2,3-b]pyridine-2-carboxamide]	100 to 1000
CC(=O)N1C[C@@H]2CN(c3ccc4cc(C(=O)Nc5ccc6nc(C)cn6c5)sc4n3)C[C@@H]2C1 [Compound 29, 6-((3aR,6aS)-5-acetylhexahydropyrrolo[3,4-c]pyrrol-2(1H)-yl)-N-(2-methylimidazo[1,2-a]pyridin-6-yl)thieno[2,3-b]pyridine-2-carboxamide]	1000 to 9000
COc1cc2nn(C)cc2cc1NC(=O)c1cc2ccc(N3CC[C@]4(CCCN4C)C3)nc2s1 (single isomer, unassigned) [Compound 222]	< 100
COc1cc2nn(C)cc2cc1NC(=O)c1nc2ccc(C3CCN(C)CC3)nc2s1 [Compound 135, N-(6-methoxy-2-methyl-2H-indazol-5-yl)-5-(1-methylpiperidin-4-yl)thiazolo[5,4-b]pyridine-2-carboxamide]	100 to 1000
Cc1cn2cc(NC(=O)c3cc4ccc(N(C)CCN(C)C)nc4s3)ccc2n1 [Compound 23, 6-((2-(dimethylamino)ethyl)(methyl)amino)-N-(2-methylimidazo[1,2-a]pyridin-6-yl)thieno[2,3-b]pyridine-2-carboxamide]	100 to 1000
Cc1cn2cc(NC(=O)c3cc4ccc(N5CCC6CCN(C)C6C5)nc4s3)ccc2n1 (stereo in doubt) [Compound 30, N-(2-methylimidazo[1,2-a]pyridin-6-yl)-6-((3aR,7aR)-1-methyloctahydro-6H-pyrrolo[2,3-c]pyridin-6-yl)thieno[2,3-b]pyridine-2-carboxamide]	100 to 1000
Cc1cn2cc(NC(=O)c3cc4ccc(N5C[C@@H]6CCN(C)[C@@H]6C5)nc4s3)cc(F)c2n1 [Compound 66, 6-[(3aS,6aS)-1-methyl-2,3,3a,4,6,6a-hexahydropyrrolo[3,4-b]pyrrol-5-yl]-N-(8-fluoro-2-methyl-imidazo[1,2-a]pyridin-6-yl)thieno[2,3-b]pyridine-2-carboxamide]	< 100
Cc1cn2cc(NC(=O)c3nc4ccc(N5CCNCC5)nc4s3)cc(F)c2n1 [Compound 102, N-(8-fluoro-2-methylimidazo[1,2-a]pyridin-6-yl)-5-(piperazin-1-yl)thiazolo[5,4-b]pyridine-2-carboxamide]	< 100
Cc1cn2cc(NC(=O)c3cc4ccc(N(C)C5CN6CCC5CC6)nc4s3)ccc2n1 (stereo not shown) [Compound 38, 6-(methyl(quinuclidin-3-yl)amino)-N-(2-methylimidazo[1,2-a]pyridin-6-yl)thieno[2,3-b]pyridine-2-carboxamide]	100 to 1000
